The values below come from patent publication US20170246144A1, “METHOD OF PREVENTING OR TREATING SPINOCEREBELLAR ATAXIA BY ADMINISTRATING SILIBININ” (National Taiwan Normal University, priority 2016, published 2017).

What all share (type): cell-based, Human
For experiment [1], the system named is SH-SY5Y cells. Briefly: JC-1 flow cytometry of mitochondria membrane potential (MMP). The method, then: FIGS. 7A and 7B show the effects of SB on mitochondria membrane potential (MMP) in SH-SY5Y cells treated with MSG measured by JC-1 staining with a flow cytometry, wherein the control group (Ctrl) was untreated SH-SY5Y cells or the cells were treated with 100 mM MSG, 100 mM MSG+15 μM SB, 100 mM MSG+10 μM MK801 (MK) or 5 μM CCCP (disruptor of electron transport chain) for 12 hours. […] The results were shown as mean±SEM, n=3, *p<0.05, comparing to the MSG treatment group.
In the present embodiment, flow cytometry analysis was used to investigate whether silibinin can prevent the reduction of mitochondria membrane potential induced by glutamate in SH-SY5Y cells.
SH-SY5Y cells were seeded in 6 centimeter dish (1×10^6 cells/plate) for 24 hours, and then were pre-treated with 15 μM silibinin or 10 μM MK-801 for 1 hour followed by the treatment of 100 mM MSG for 12 hours. 5 μM carbonyl cyanide m-chlorophenylhydrazone (CCCP) was added to the positive control group to induce the depolarization of mitochondria membrane potential.
The treated cells were washed, centrifuged and collected, followed by PBS wash and JC-1 dye staining for 30 minutes. The stained cells were re-suspended using phosphate buffer solution and analyzed by a flow cytometry to obtain a 2-dimensional scatter plot. 10,000 cells were recorded for each experiment.
For orientation: A flow cytometer gives signals particle by particle.

The test system of experiment [2] is SH-SY5Y cells. Briefly: Annexin V-FITC/PI flow cytometry, apoptosis induced by MSG. Particulars: 10 μM, 100 mM MSG, 24 hours. On the procedure: 1×10^6 SH-SY5Y cells were treated with 100 mM MSG and 15 μM SB or 10 μM MK801 (MK) for 24 hours. Cells were stained with Annexin-V/PI and the apoptosis was measured with a flow cytometry.
In order to detect the effects of silibinin in inhibiting the apoptosis induced by glutamate in SH-SY5Y cells. The cells were measured by flow cytometry using Annexin V-FITC/propidium iodide (PI) double-labeling method.
SH-SY5Y cells were seeded in dish and were treated with 100 mM MSG in combination of 15 μM silibinin or 10 μM MK801 for 24 hours. The cells were then trypsinized and collected by centrifugation at 2,000 rpm for […] followed by double-staining with Annexin V-FITC and PI. Stained cells were analyzed with a flow cytometry (FACS Sorter, Becton, Dickinson and Company). 10,000 cells were recorded in each experiment.

The test system of experiment [3] is SH-SY5Y cells. Put plainly: Chemiluminescence (luminol) analysis of ROS induced by MSG. The method, then: FIG. 6A: The ROS productions in 1×10^6 SH-SY5Y cells were measured by chemiluminescence (CL) analysis and luminol measurement, wherein the control group (Ctrl) was untreated SH-SY5Y cells or the cells were treated with 100 mM MSG, 100 mM MSG+15 μM SB or 100 mM MSG+10 μM MK801 (MK) for 24 hours.
It is known that the cyto-toxicity induced by glutamate is associated with mitochondria dysfunction and the increased production of ROS in neuron. In this embodiment, chemiluminescence analysis was performed to measure the level of ROS in order to understand whether silibinin can inhibit the accumulation of ROS associated with glutamatergic excitotoxicity. […] The emission spectrum was blue light which can be monitored by chemiluminescence detector.
SH-SY5Y cells were seeded in dish (1×10^6 cells/plate) for 24 hours, and then were pre-treated with 15 μM silibinin or 10 μM MK-801 for 1 hour followed by the treatment of 100 mM glutamate for 24 hours. The cells were then washed and suspended in 60 μL RIPA on ice bath followed by stirring and centrifugation at 13,000 rpm for […] at 4° C. The obtained protein sample (200 μL, 20 μg) was mixed with 0.5 mL of 0.2 mM luminol (Sigma). After 5 minutes, chemiluminescence analysis system (CLD-110, Tohoku Electronic Inc. Co. Japan) was performed to determine its chemiluminescence.

For the compound `N#CC(C#N)=NNc1cccc(Cl)c1` [CCCP, carbonyl cyanide m-chlorophenylhydrazone], the MMP retained in the experiment on SH-SY5Y cells [1] (5 μM CCCP, positive control, no MSG) is given as 18±10%.

A word on the inhibition: it is the relative decrease from the control value, in per cent. For `C[C@]12N[C@H](Cc3ccccc31)c1ccccc12` [MK801], the “apoptosis (apoptotic cells)” value with SH-SY5Y cells [2] is 9.73%. Also, the “extracellular ROS” value in the experiment on SH-SY5Y cells [3] (10 μM, 100 mM MSG, 24 hours) was “unchanged”. Moreover, the inhibition at 10 µM in the experiment on SH-SY5Y cells [3] (Homo sapiens, SH-SY5Y, 24 h, read-out: inhibition of intracellular ROS) was 80%. Moreover, the “MMP compared to Ctrl” value in the experiment with SH-SY5Y cells [1] (10 μM + 100 mM MSG) is reported as 90±5%.
